# Patent US20040029244A1, “Phospholipase d effectors for therapy and screening” (priority 2003, published 2004)
# Starred links: 1 amine or outer side, 2 acyl side, 3 side chain; linkers in the order of their positions; H or OH if unused. Positions of bridges follow the written chain, without caps; N, C: chain ends. Non-standard residues stand in square brackets, D forms with d. Residues, ends and D or L forms follow the SMILES beside them. Chains are numbered I, II in the order given. Actinocin(9to1) = Cc1c2oc3c(C)ccc(C(=O)[*:1])c3nc-2c(C(=O)[*:2])c(N)c1=O; NMeV = CN[C@H](C(=O)O)C(C)C; Sar = CNCC(=O)O
# Experiments:
# Assay type in all cases: cell-based, human
# [1] = system: MMP-9 expression in HT 1080 cells; experiment: Cell lysis and immunoblotting with rabbit anti MMP-9; settings: 7.5 h
# Protocol: FIG. 6. Phophatidic acid mediates protein kinase C induction of MMP-9 expression. A, Overnight serum-deprived cells were incubated in freshly added DMEM, 0.1% BSA containing either 100 nM PMA or 80 ? g/ml DDPA. B. Overnight serum-deprived cells were incubated in freshly added DMEM, 0.1% BSA containing 0.5% of either 1-propanol or 2-propanol for control. Following 7.5 h incubation cells were lysed with RIPA buffer and 15 ? g whole cell lysate were subjected to SDS-PAGE and immunoblotting with rabbit anti MMP-9. Immunoreactive bands were visualized using the ECL reaction. The data shown are representative of three independent experiments.
# Cell lysis and immunoblotting Overnight serum-deprived cells in 60 mm plates were washed with PBS and then lysed with 750 μl RIPA^− buffer (1% NP-40, 0.1% SDS, 100 mM NaF, 10 mM Na pyrophosphate, 2.5 mM Na3VO4 in PBS). RIPA^− soluble fraction was separated from the non-solube fraction by 15 min centrifugation in a bench top microcentrifuge at 14,000 rpm at 4° C. Protein samples (15 μg) were analyzed after SDS-polyacrylamide gel electrophoresis (SDS-PAGE) by immunoblotting with rabbit anti MMP-9 or anti actin diluted according to manufacturer instructions in PBS, 0.5% Tween 20 and 5% dry milk powder and with horseradish peroxidase-labeled secondary antibody. Immunoreactive bands were visualized by the enhanced chemiluminescence (ECL) reaction.
# [2] = system: MMP-9 secretion from HT 1080 cells; experiment: MMP-9 secretion and activity assay (zymogram gels of cell medium); settings: for MMP-9 secretion in response to various PMA concentrations at 133 mM alcohol: 133 mM alcohol 45 min before PMA, FIG. 4B; for effect on PMA-induced MMP-9 secretion at 200 mM alcohol: 200 mM alcohol 45 min before 100 nM PMA
# Protocol: FIG. 4. […] Overnight serum-deprived cells were incubated in freshly added DMEM, 0.1% BSA. A, the indicated concentrations of either 2-propanol or 1-propanol were then added. After 45 min, 100 nM PMA-was added and cells were incubated for 7.5 h after which media samples (5 ? l) were analyzed for MMP-9 secretion. B, the cells were incubated with 133 mM 2-propanol or 1-propanol for 45 min. PMAa was then introduced to give the indicated concentrations. The cells were incubated for 7.5 h after which 5 ? l media samples were analyzed for MMP-9 secretion. The data shown are representative of three independent experiments. […]
# MMP-9 secretion and activity assay Before assay, the cell medium was replaced with fresh DMEM, 0.1% BSA containing, unless otherwise described, 100 nM PMA. In experiments involving inhibition with BFA, it was added 30 min before induction with PMA. Medium samples were collected after 7.5 h and loaded with non-reducing sample buffer (2% SDS, 10% glycerol in 62.5 mM Tris pH 6.8) on zymogram gels. Before developing, gels were rinsed for 30 min in renaturing buffer and then 30 min in developing buffer at room temperature. Gels were incubated in fresh developing buffer for 18 h at 37° C. MMP-9 activity was indicated by the clear 92 kDa band that appeared after staining with Coomassie brilliant blue and removing excess dye by an 18 h rinse in water. Gels were dried and scanned and then the image was inverted (clear to black and black to clear).
# PLD in HT 1080 cells = experiment: In vivo PLD assay ([3H]phosphatidylbutanol formation in labeled cells)
# Protocol: FIG. 2. Activation of PLD in PMA-treated HT 1080 cells. The cells, at their log phase of growth, were serum deprived and labeled with […] [^3H]myristic acid. Following washing and preincubation with DMEM, 0.1% BSA, 0.3% 1-butanol for 20 min, and 100 nM PMA were added, and cells were incubated for the indicated times at 37° C. Lipids were extracted and analyzed, and the production of labelled phosphatidylbutanol ([^3H]PtdBut) was measured as described under “Materials and Methods”. The values obtained for [^3H]PtdBut were normalized by dividing the measured counts/min by counts/min in the total lipid fraction. Data are expressed as the mean±S.E. of the fold activation in three independent experiments performed in triplicates.
# In vivo PLD assay Serum-deprived cells were labeled for 18 h with 1 μCi/ml [^3H]myristic acid and were washed with DMEM, 0.1% BSA. Following 20 min preincubation in DMEM, 0.1% BSA, 0.3% 1-butanol, the cells were stimulated with, unless otherwise described, 100 nM PMA for 20 min. Cells were washed with phosphate saline buffer (PBS) (2.68 mM KC1, 1.47 mM KH2PO4, 8.05 mM Na2PO4, 137 mM NaC1), 0.1% BSA, scraped with 1 ml ice cold CH3OH and transferred into glass tubes. CHC13 and 0.1 N HC1 were added to a final ratio of 1:1:1. The lipid-containing lower phase was collected, dried and dissolved in 30 μl CH3OH, CHC13 (1:1). The samples were loaded on a TLC plate which was developed in the lower phase of H2O, ethylacetate, acetic acid and iso-octane (100:110:20:50 respectively). Tritiated phosphatidylbutanol (PdtBut) was measured after scraping the band corresponding to the PtdBut standard (Avanti Polar Lipids).
compound,measurement,setting,value
CCCO [1-propanol],MMP-9 expression in PMA-treated cells (immunoblot),"[1]; 0.5% alcohol pretreatment, PMA, whole cell lysate, FIG. 6",suppressed
same,effect on PMA-induced MMP-9 secretion at 100 mM alcohol,"[2]; 100 mM alcohol 45 min before 100 nM PMA, 7.5 h, FIG. 4A",inhibited
same,MMP-9 secretion in response to various PMA concentrations at 133 mM alcohol,[2]; 7.5 h,almost totally suppressed
same,effect on PMA-induced MMP-9 secretion at 200 mM alcohol,"[2]; 7.5 h, FIG. 4A",almost absolute suppression
CC(C)O [2-propanol],MMP-9 secretion in response to various PMA concentrations at 133 mM alcohol,[2]; 7.5 h,continues to be dose-dependent
same,effect on PMA-induced MMP-9 secretion at 200 mM alcohol,"[2]; 7.5 h, FIG. 4A",inhibitory
"Cc1c2oc3c(C)ccc(C(=O)N[C@@H]4C(=O)N[C@H](C(C)C)C(=O)N5CCC[C@H]5C(=O)N(C)CC(=O)N(C)[C@@H](C(C)C)C(=O)O[C@@H]4C)c3nc-2c(C(=O)N[C@@H]2C(=O)N[C@H](C(C)C)C(=O)N3CCC[C@H]3C(=O)N(C)CC(=O)N(C)[C@@H](C(C)C)C(=O)O[C@@H]2C)c(N)c1=O [ActD, actinomycin D] (I: T[dV]P[Sar][NMeV] / II: T[dV]P[Sar][NMeV]; ester I:1-I:C, II:1-II:C; linker I:N-II:N via Actinocin(9to1))",effect on MMP-9 secretion induced with phosphatidic acid,"[2]; 10 μg/ml ActD 45 min, then 80 μg/ml DDPA, 7.5 h, FIG. 5",fully decreased
"CCCCCCCCCCCCCC(=O)O[C@@H]1[C@@H](C)[C@@]2(O)[C@@H](C=C(CO)C[C@]3(O)C(=O)C(C)=C[C@@H]23)[C@@H]2C(C)(C)[C@]12OC(C)=O [PMA, phorbol 12-myristate 13-acetate]",time at which PtdBut formation (PLD activity) reaches a maximum,"PLD in HT 1080 cells; 100 nM PMA, 0.3% 1-butanol, FIG. 2",90 min
same,concentration at which the PLD response is detectable,"PLD in HT 1080 cells; HT 1080 cells, data not shown",1 nM
same,concentration at which the PLD response is maximal,"PLD in HT 1080 cells; HT 1080 cells, data not shown",100 nM
same,MMP-9 activity accumulating in the medium of treated cells,"[2]; HT 1080 cells, 100 nM PMA, various times up to 7.5 h",time-dependent manner
same,lowest concentrations at which MMP-9 secretion is detected,"[2]; HT 1080 cells, 7.5 h, FIG. 1B",0.5 to 1 nM
Cn1cc(C2=C(c3cn(CCCSC(=N)N)c4ccccc34)C(=O)NC2=O)c2ccccc21 [Ro 31-8220],effect on PMA-induced MMP-9 secretion,"[2]; 5 μM inhibitor preincubated 1 h, then 100 nM PMA, 7.5 h, FIG. 1C",inhibition of secretion
diodecanoylphosphatidic acid [DDPA],induction of MMP-9 secretion,"[2]; HT 1080 cells, various concentrations, 7.5 h, FIG. 3",induces MMP-9 secretion in a dose-dependent manner
phosphatidic acid [PA],induction of MMP-9 expression (immunoblot),"[1]; HT 1080 cells, 80 μg/ml DDPA, FIG. 6A",induces de novo MMP-9 expression
